Consider 35 compounds from patent EP4353712A1 (Biodol Therapeutics, priority 2022, dated 2024).

The structures appear in SMILES notation.

This test deals with T1, FLT3 (Homo sapiens, UniProt P36888).
T1 construct: expressed in transfected cells; host or cells: HEK293T
T1 sequence (P36888 27-993): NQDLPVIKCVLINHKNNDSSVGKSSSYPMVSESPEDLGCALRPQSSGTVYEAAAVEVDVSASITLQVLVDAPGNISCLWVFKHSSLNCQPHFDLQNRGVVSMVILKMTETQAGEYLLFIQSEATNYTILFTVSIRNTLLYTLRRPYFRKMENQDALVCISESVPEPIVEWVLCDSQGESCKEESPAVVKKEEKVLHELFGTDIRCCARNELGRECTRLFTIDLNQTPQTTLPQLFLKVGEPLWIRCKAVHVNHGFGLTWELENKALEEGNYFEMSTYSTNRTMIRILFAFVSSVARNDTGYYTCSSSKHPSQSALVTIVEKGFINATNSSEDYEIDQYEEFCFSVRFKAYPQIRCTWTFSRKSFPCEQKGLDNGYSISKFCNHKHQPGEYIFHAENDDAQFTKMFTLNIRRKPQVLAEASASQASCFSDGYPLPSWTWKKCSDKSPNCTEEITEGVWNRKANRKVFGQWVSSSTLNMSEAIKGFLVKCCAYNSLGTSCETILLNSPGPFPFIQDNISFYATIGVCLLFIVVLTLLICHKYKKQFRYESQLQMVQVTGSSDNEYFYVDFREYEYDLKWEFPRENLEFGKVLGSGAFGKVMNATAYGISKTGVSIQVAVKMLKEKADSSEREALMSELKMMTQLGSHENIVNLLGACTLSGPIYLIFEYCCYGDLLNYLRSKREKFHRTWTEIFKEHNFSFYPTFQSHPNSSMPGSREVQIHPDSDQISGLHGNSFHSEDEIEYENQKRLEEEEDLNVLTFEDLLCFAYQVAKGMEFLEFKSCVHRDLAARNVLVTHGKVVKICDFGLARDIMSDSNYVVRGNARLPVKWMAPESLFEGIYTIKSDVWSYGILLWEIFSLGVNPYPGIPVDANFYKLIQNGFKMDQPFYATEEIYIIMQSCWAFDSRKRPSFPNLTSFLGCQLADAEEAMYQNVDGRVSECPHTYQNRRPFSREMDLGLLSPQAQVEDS
As to the kind of experiment: HTRF binding assay of FL to FLT3 (TR-FRET, SNAP-FLT3 transfected HEK293T cells). The following applies: HEK293T cells transfected with SNAP-FLT3, labelled with SNAP-Lumi4-Tb; compounds 1 h at room temperature, then FL-d2 (0.5 nM), read after 20 h; 12 dilutions in triplicates, performed twice; read-out: Inhibition of FLT3 binding IC50, binding. As to the method:
The binding of FL to FLT3 was measured by a Homologous Time-Resolved Fluorescence (HTRF) assay (Degorce et al., Current Chemical Genomics, 2009, 3, 22-32), which involves resonance energy transfer between a donor, Lumi4-Tb-donor-derivatized benzylguanine substrate (SNAP-Lumi4-Tb, excitation: 337 nm, emission: 630 nm, Cisbio, France), transfected in HEK cells, and an acceptor, red fluorescent FL (FL-d2, excitation: 620 nm, emission: 660 nm, Cisbio, France). When FL-d2 binds to the SNAP-Lumi4-Tb-tagged FLT3 receptor, the proximity of both fluorophores allows the time-resolved Förster resonance energy transfer (TR-FRET) signal to occur and the binding is measured as the ratio between the fluorescent emissions at 660 to 620 nm.
The detailed method is described in Rivat et al. (Nature Communications, 2018, 9 :1042). Briefly, HEK293T cells were transfected with a pCDNA3.1 SNAP-FLT3 plasmid by using Lipofectamine (Invitrogen), and were than labelled with SNAP-Lumi4-Tb. Plates containing attached transfected HEK293T cells were incubated with compounds of formula (I) for 1 h at room temperature. A series of 12 dilutions in triplicates was used for each compound and the experiment was performed twice. Then FL-d2 (0.5 nM) was added and the TR-FRET signal was read after 20 h incubation at room temperature with a HTRF-compatible reader (Envision, Perkin Elmer) allowing a donor excitation at 337 nm and a signal collection both at 615 nm and 665 nm (20 flashes, delay 50 µs, integration time 400 µs). Then HTRF ratio, obtained by dividing the acceptor signal (665 nm) by the donor signal (615 nm), was calculated at each concentration of test compounds. Non-specific binding was measured in the presence 50 µM of BDT001 (Rivat et al., ibid.). Concentration giving 50 % inhibition (IC50) were calculated by non-linear regression analysis for a one-site model, with variable slope (Prism®, Graphpad software, USA).
As for `CN1CCC(c2ccc(C(=O)Nc3ccc(F)c4cccnc34)cc2)CC1` [(1), N-(5-fluoroquinolin-8-yl)-4-(1-methylpiperidin-4-yl)benzamide], the IC50 turned out to be 1.2 µM. On to `CN1CCC(c2ccc(C(=O)Nc3ccc(F)c4cnccc34)cc2)CC1` [(2), N-(8-fluoroisoquinolin-5-yl)-4-(1-methylpiperidin-4-yl)benzamide], for which the IC50 was 1.4 µM. In the case of `CN1CCC(c2ccc(C(=O)Nc3ccc(F)c4ccncc34)cc2)CC1` [(3), N-(5-fluoroisoquinolin-8-yl)-4-(1-methylpiperidin-4-yl)benzamide], the IC50 was found to be 1.8 µM. The result for `CN1CCC(c2ccc(C(=O)Nc3ccc(F)c4ncccc34)cc2)CC1` [(4), N-(8-fluoroquinolin-5-yl)-4-(1-methylpiperidin-4-yl)benzamide] reads 5.3 µM. With `CN1CCC(c2ccc(C(=O)Nc3ccc(F)c4nccnc34)cc2)CC1` [(5), N-(8-fluoroquinoxalin-5-yl)-4-(1-methylpiperidin-4-yl)benzamide] the figure was 0.4 µM; with `CN1CCC(c2ccc(C(=O)Nc3cccc4ncccc34)cc2)CC1` [(6), 4-(1-methylpiperidin-4-yl)-N-(quinolin-5-yl)benzamide], 1.3 µM; with `CN1CCC(c2ccc(C(=O)Nc3cccc4cnccc34)cc2)CC1` [(7), N-(isoquinolin-5-yl)-4-(l-methylpiperidin-4-yl)benzamide], 0.8 µM.

Regarding `CN1CCC(c2ccc(C(=O)Nc3cccc4ccncc34)cc2)CC1` [(8), N-(isoquinolin-8-yl)-4-(1-methylpiperidin-4-yl)benzamide], the IC50 worked out at 0.8 µM.

Take `CN1CCC(c2ccc(C(=O)Nc3cccc4cccnc34)cc2)CC1` [(9), 4-(1-methylpiperidin-4-yl)-N-(quinolin-8-yl)benzamide]: the IC50 came to 1.5 µM.

With `CN(C)CCOc1ccc(C(=O)Nc2cccc3ccncc23)cc1` [(10), 4-[2-(dimethylamino)ethoxy]-N-(isoquinolin-8-yl)benzamide], the IC50 turned out to be 0.8 µM. With `CN(C)CCOc1ccc(C(=O)Nc2cccc3cccnc23)cc1` [(11), 4-[2-(dimethylamino)ethoxy]-N-(quinolin-8-yl)benzamide] the figure was 2.9 µM; with `CN1CCC(c2ccc(C(=O)Nc3cccc4cccnc34)c(F)c2)CC1` [(12), 2-fluoro-4-(1-methylpiperidin-4-yl)-N-(quinolin-8-yl)benzamide], 1.8 µM; with `CN1CCC(c2ccc(C(=O)Nc3cccc4cnccc34)cc2F)CC1` [(13), 3-fluoro-N-(isoquinolin-5-yl)-4-(1-methylpiperidin-4-yl)benzamide], 1.4 µM. The result for `CN(C)CCOc1ccc(C(=O)Nc2cccc3cnccc23)cc1` [(14), 4-(2-(dimethylamino)ethoxy)-N-(isoquinolin-5-yl)benzamide] reads 0.9 µM; that for `CN(C)CCOc1ccc(C(=O)Nc2cccc3ncccc23)cc1` [(15), 4-(2-(dimethylamino)ethoxy)-N-(quinolin-5-yl)benzamide], 1.7 µM. In the case of `COc1cc(C2CCN(C)CC2)ccc1C(=O)Nc1cccc2cccnc12` [(16), 2-methoxy-4-(1-methylpiperidin-4-yl)-N-(quinolin-8-yl)benzamide], the IC50 stood at 0.6 µM.

As to `COc1cc(C(=O)Nc2cccc3cnccc23)ccc1C1CCN(C)CC1` [(17), N-(isoquinolin-5-yl)-3-methoxy-4-(1-methylpiperidin-4-yl)benzamide], the IC50 worked out at 0.9 µM.

Consider `CN1CCC(c2ccc(C(=O)Nc3cccc4cccnc34)c(C(F)(F)F)c2)CC1` [(18), 4-(1-methylpiperidin-4-yl)-N-(quinolin-8-yl)-2-(trifluoromethyl)benzamide], for which the IC50 was 1.7 µM. Take `CN(C)CCOc1ccc(C(=O)Nc2cccc3cnncc23)cc1` [(19), 4-[2-(dimethylamino)ethoxy]-N-(phthalazin-5-yl)benzamide]: the IC50 amounted to 25 µM. The result for `CN(C)CCOc1ccc(C(=O)Nc2ccc(F)c3ncccc23)cc1` [(20), 4-(2-(dimethylamino)ethoxy)-N-(8-fluoroquinolin-5-yl)benzamide] reads 6.2 µM. As for `CN1CCC(c2ccc(C(=O)Nc3cccc4cnccc34)cc2C#N)CC1` [(21), 3-cyano-N-(isoquinolin-5-yl)-4-(1-methylpiperidin-4-yl)benzamide], the IC50 was 2 µM.

`CN(C)CCOc1ccc(C(=O)Nc2ccc(F)c3ccncc23)cc1` [(22), 4-(2-(dimethylamino)ethoxy)-N-(5-fluoroisoquinolin-8-yl)benzamide]: the IC50 was 1.9 µM. Consider `CN(C)CCOc1ccc(C(=O)Nc2ccc(F)c3nccnc23)cc1` [(23), 4-(2-(dimethylamino)ethoxy)-N-(8-fluoroquinoxalin-5-yl)benzamide], for which the IC50 came out at 0.5 µM.

On to `CN1CCN(c2ccc(C(=O)Nc3cccc4cnccc34)cc2F)CC1` [(24), 3-fluoro-N-(isoquinolin-5-yl)-4-(4-methylpiperazin-1-yl)benzamide], for which the IC50 is 1.1 µM.

For `CN1CCC(c2ccc(C(=O)Nc3cccc4cnccc34)c(S(C)(=O)=O)c2)CC1` [(25), N-(isoquinolin-5-yl)-2-methanesulfonyl-4-(1-methylpiperidin-4-yl)benzamide], the IC50 came to 2.6 µM. Take `CN(C)CCOc1ccc(C(=O)Nc2ccc(F)c3cccnc23)cc1` [(26), 4-[2-(dimethylamino)ethoxy]-N-(5-fluoroquinolin-8-yl)benzamide]: the IC50 was 1.4 µM. The result for `CN1CCC(c2ccc(C(=O)Nc3cccc4ncccc34)cc2C(F)(F)F)CC1` [(27), 4-(1-methylpiperidin-4-yl)-N-(quinolin-5-yl)-3-(trifluoromethyl)benzamide] reads 3.6 µM; that for `CN1CCC(c2ccc(C(=O)Nc3cccc4nccnc34)cc2)CC1` [(28), 4-(1-methylpiperidin-4-yl)-N-(quinoxalin-5-yl)benzamide], 0.4 µM; that for `Cc1cc(C(=O)Nc2cccc3ncccc23)ccc1N1CCN(C)CC1` [(29), 3-methyl-4-(4-methylpiperazin-1-yl)-N-(quinolin-5-yl)benzamide], 1.2 µM.

Take `CN1CCC(c2ccc(C(=O)Nc3ccc(Cl)c4ncccc34)cc2)CC1` [(30), N-(8-chloroquinolin-5-yl)-4-(1-methylpiperidin-4-yl)benzamide]: the IC50 was 1.9 µM. In the case of `CN(C)CCOc1ccc(C(=O)Nc2cccc3nccnc23)cc1` [(31), 4-[2-(dimethylamino)ethoxy]-N-(quinoxalin-5-yl)benzamide], the IC50 is 0.7 µM.

For `CN(C)CCOc1ccc(C(=O)Nc2ccc(Cl)c3ncccc23)cc1` [(32), N-(8-chloroquinolin-5-yl)-4-[2-(dimethylamino)ethoxy]benzamide], the IC50 amounted to 2.4 µM.

Regarding `CN(C)CCOc1ccc(C(=O)Nc2ccc(F)c3cnccc23)cc1` [(33), 4-[2-(dimethylamino)ethoxy]-N-(8-fluoroisoquinolin-5-yl)benzamide], the IC50 turned out to be 2.3 µM. For `COc1ccc(NC(=O)c2ccc(OCCN(C)C)cc2)c2ccncc12` [(34)], the IC50 is 0.5 µM.

On to `CN1CCN(c2ccc(C(=O)Nc3cccc4cccnc34)cc2)CC1` [(35), 4-(4-methylpiperazin-1-yl)-N-(quinolin-8-yl)benzamide], for which the IC50 amounted to 1.7 µM.
